Source: ChEMBL document CHEMBL5252611, “2- and 3-Fluoro-3-deaza-1',6'-isoneplanocin: Synthesis and antiviral properties (including Ebola and Marburg)” (Bioorg Med Chem Lett, 2023)
Active and inactive are the calls of the source. The rule behind the calls is not given here.

How the values were obtained:
[1] = test system: Yellow fever virus; experiment: Antiviral activity against Yellow fever virus; format: functional, organism-based
[2] = test system: Measles morbillivirus; experiment: Antiviral activity against Measles virus; format: functional, organism-based
[3] = test system: Hepatitis B virus; experiment: Antiviral activity against HBV; format: functional, organism-based
[4] = test system: Human betaherpesvirus 5; experiment: Antiviral activity against Human betaherpesvirus 5; format: functional, organism-based
[5] = Cytotoxicity against African green monkey Vero cells infected with Tacaribe virus TRVL11573 by neutral red dye based analysis; format: toxicity, cell-based; conditions: chlorocebus sabaeus
[6] = Selectivity index, ratio of CC50 for cytotoxicity against human HepG2.2.15 cells to EC50 for antiviral activity against HBV ayw1 infected in human HepG2.2.15 cells; format: toxicity, cell-based; conditions: read-out: Ratio CC50/EC50
[7] = Selectivity index, ratio of CC50 for cytotoxicity against African green monkey Vero cells infected with Pichinde virus AN 4763 by visual analysis to EC50 for antiviral activity against Pichinde virus AN 4763 infected in African green monkey Vero cells by visual analysis; format: toxicity, cell-based; conditions: read-out: Ratio CC50/EC50
[8] = test system: Japanese encephalitis virus; experiment: Antiviral activity against Japanese encephalitis virus SA 14 infected in African green monkey Vero 76 cells; format: functional, organism-based
[9] = test system: Measles morbillivirus; experiment: Antiviral activity against Measles virus CC infected in African green monkey Vero 76 cells by neutral red dye based analysis; format: functional, organism-based
[10] = Cytotoxicity against African green monkey Vero cells infected in Pichinde virus AN 4763 by neutral red dye based analysis; format: toxicity, cell-based; conditions: chlorocebus sabaeus, Vero cells infected with Pichinde virus AN 4763
[11] = (§1) Selectivity index, ratio of CC50 for cytotoxicity against African green monkey Vero 76 cells infected with Measles virus CC by visual analysis to EC50 for antiviral activity against Measles virus CC infected in African green monkey Vero 76 cells by visual analysis; format: toxicity, cell-based; conditions: read-out: Ratio CC50/EC50
[12] = test system: Tacaribe virus; experiment: Antiviral activity against Tacaribe virus TRVL11573 infected in African green monkey Vero cells by neutral red dye based analysis; format: functional, organism-based; conditions: Mammarenavirus tacaribeense
[13] = test system: Rift Valley fever virus; experiment: Antiviral activity against Rift Valley fever virus MP-12 infected in African green monkey Vero 76 cells by visual analysis; format: functional, organism-based; conditions: MP-12, Vero 76
[14] = test system: Human betaherpesvirus 5; experiment: Antiviral activity against Human betaherpesvirus 5 AD 169 infected in HFF cells; format: functional, organism-based
[15] = test system: dengue virus type 2; experiment: Antiviral activity against Dengue virus 2 New Guinea infected in human Huh-7 cells; format: functional, organism-based
[16] = test system: Measles morbillivirus; experiment: Antiviral activity against Measles virus CC infected in African green monkey Vero 76 cells by visual analysis; format: functional, organism-based
[17] = test system: Pichinde virus; experiment: Antiviral activity against Pichinde virus AN 4763 infected in African green monkey Vero cells by visual analysis; format: functional, organism-based; conditions: AN 4763, Vero
[18] = test system: Tacaribe virus; experiment: Antiviral activity against Tacaribe virus TRVL11573 infected in African green monkey Vero cells; format: functional, organism-based; conditions: Mammarenavirus tacaribeense
[19] = as §1, with “with Rift Valley fever” for “with Measles”, “virus MP-12” for “virus CC”, “by neutral red dye based” for “by visual”, “against Rift Valley fever” for “against Measles”; format: toxicity, cell-based; conditions: read-out: Ratio CC50/EC50
[20] = test system: Chikungunya virus; experiment: Antiviral activity against Chikungunya virus S27 infected in African green monkey Vero 76 cells; format: functional, organism-based
[21] = test system: Hepatitis B virus; experiment: Antiviral activity against HBV ayw1 infected in human HepG2.2.15 cells; format: functional, organism-based; conditions: ayw1, HepG2.2.15
[22] = Cytotoxicity against human HepG2.2.15 cells; format: toxicity, cell-based, HepG2 2.2.15
[23] = Cytotoxicity against African green monkey Vero 76 cells infected with Measles virus CC by visual analysis; format: toxicity, cell-based; conditions: chlorocebus sabaeus
[24] = test system: Tacaribe virus; experiment: Antiviral activity against Tacaribe virus TRVL11573 infected in African green monkey Vero cells by visual analysis; format: functional, organism-based; conditions: Mammarenavirus tacaribeense
[25] = test system: Middle East respiratory syndrome-related coronavirus; experiment: Antiviral activity against Middle East respiratory syndrome-related coronavirus EMC infected in African green monkey Vero 76 cells; format: functional, organism-based
[26] = test system: Pichinde virus; experiment: Antiviral activity against Pichinde virus AN 4763 infected in African green monkey Vero cells by neutral red dye based analysis; format: functional, organism-based; conditions: AN 4763, Vero
[27] = (§2) Selectivity index, ratio of CC50 for cytotoxicity against African green monkey Vero cells infected with Pichinde virus AN 4763 by neutral red dye based analysis to EC50 for antiviral activity against Pichinde virus AN 4763 infected in African green monkey Vero cells by neutral red dye based analysis; format: toxicity, cell-based; conditions: read-out: Ratio CC50/EC50
[28] = test system: Punta Toro virus; experiment: Antiviral activity against Punta Toro virus Adames infected in African green monkey Vero 76 cells; format: functional, organism-based
[29] = Selectivity index, ratio of CC50 for cytotoxicity against African green monkey Vero 76 cells by neutral red dye based analysis to EC50 for antiviral activity against Measles virus CC infected in African green monkey Vero 76 cells by neutral red dye based analysis; format: toxicity, cell-based; conditions: read-out: Ratio CC50/EC50
[30] = Cytotoxicity against African green monkey Vero 76 cells infected with Measles virus CC by neutral red dye based analysis; format: toxicity, cell-based; conditions: chlorocebus sabaeus
[31] = Cytotoxicity against African green monkey Vero cells infected in Pichinde virus AN 4763 by visual analysis; format: toxicity, cell-based; conditions: chlorocebus sabaeus, Vero cells infected with Pichinde virus AN 4763
[32] = Selectivity index, ratio of CC50 for cytotoxicity against African green monkey Vero 76 cells infected with Rift Valley fever virus MP-12 by visual analysis to EC50 for antiviral activity against Rift Valley fever virus MP-12 infected in African green monkey Vero 76 cells by visual analysis; format: toxicity, cell-based; conditions: read-out: Ratio CC50/EC50
[33] = test system: Rift Valley fever virus; experiment: Antiviral activity against Rift Valley fever virus MP-12 infected in African green monkey Vero 76 cells by neutral red dye based analysis; format: functional, organism-based; conditions: MP-12, Vero 76
[34] = Selectivity index, ratio of CC50 for cytotoxicity against African green monkey Vero cells infected with Tacaribe virus TRVL11573 by visual analysis to EC50 for antiviral activity against Tacaribe virus TRVL11573 infected in African green monkey Vero cells by visual analysis; format: toxicity, cell-based; conditions: read-out: Ratio CC50/EC50
[35] = test system: Rift Valley fever virus; experiment: Antiviral activity against Rift Valley fever virus MP-12 infected in African green monkey Vero 76 cells; format: functional, organism-based
[36] = test system: Lassa virus; experiment: Antiviral activity against Lassa virus Josiah infected in African green monkey Vero cells; format: functional, organism-based; conditions: Mammarenavirus lassaense
[37] = as §2, with “Tacaribe” for “Pichinde”, “TRVL11573” for “AN 4763”; format: toxicity, cell-based; conditions: read-out: Ratio CC50/EC50
[38] = Cytotoxicity against African green monkey Vero 76 cells infected with Rift Valley fever virus MP-12 by neutral red dye based analysis; format: toxicity, cell-based; conditions: chlorocebus sabaeus
[39] = test system: Venezuelan equine encephalitis virus; experiment: Antiviral activity against Venezuelan equine encephalitis virus TC-83 infected in African green monkey Vero 76 cells; format: functional, organism-based
[40] = Cytotoxicity against African green monkey Vero 76 cells infected with Rift Valley fever virus MP-12 by visual analysis; format: toxicity, cell-based; conditions: chlorocebus sabaeus
[41] = Cytotoxicity against African green monkey Vero cells infected with Tacaribe virus TRVL11573 by visual analysis; format: toxicity, cell-based; conditions: chlorocebus sabaeus
[42] = Selectivity index, ratio of CC50 for cytotoxicity against human HG23 cells infected with Norovirus Genogroup 1 to EC50 for antiviral activity against Norovirus Genogroup 1 infected in human HG23 cells; format: toxicity, cell-based; conditions: read-out: Ratio CC50/EC50
[43] = test system: Norovirus; experiment: Antiviral activity against Norovirus Genogroup 1 infected in human HG23 cells; format: functional, organism-based; conditions: Genogroup 1, HG23
[44] = Cytotoxicity against human HG23 cells infected with Norovirus Genogroup 1; format: toxicity, cell-based
[45] = Selectivity index, ratio of CC50 for cytotoxicity against MDCK cells infected with influenza A virus California/7/2009(H1N1) to EC50 for antiviral activity against influenza A virus California/7/2009(H1N1) infected in MDCK cells; format: toxicity, cell-based; conditions: dog; read-out: Ratio CC50/EC50
[46] = Cytotoxicity against MDCK cells infected with influenza A virus California/7/2009(H1N1); format: toxicity, cell-based, Canis lupus familiaris; conditions: dog
[47] = test system: Influenza A virus; experiment: Antiviral activity against influenza A virus California/7/2009(H1N1) infected in MDCK cells; format: functional, organism-based

SMILES	CC50 [5] [µM]	selectivity ratio [7]	CC50 [10] [µM]	EC50 [12] [µM]	EC50 [13] [µM]	EC50 [17] [µM]	selectivity ratio [19]	EC50 [24] [µM]	EC50 [26] [µM]	selectivity ratio [27]	CC50 [31] [µM]	selectivity ratio [32]	EC50 [33] [µM]	selectivity ratio [34]	selectivity ratio [37]	CC50 [38] [µM]	CC50 [40] [µM]	CC50 [41] [µM]	also measured
Nc1ncc(F)c2c1ncn2[C@@H]1C=C(CO)[C@@H](O)[C@H]1O	–	–	–	–	–	–	–	–	–	–	–	–	–	–	–	–	–	–	Activity [1]: Active; Activity [2]: Active; Activity [3]: Active; Activity [4]: Active
Nc1nc(F)cc2c1ncn2C1=C[C@H](CO)[C@@H](O)[C@H]1O	50	14	50	8.6	22.1	3.32	4	10.7	2.57	19	46	5.2	33.2	7	5.8	132	114	75	selectivity ratio [6]: 113; Activity [8]: inactive; EC50 [9]: 0.39 µM; selectivity ratio [11]: 320; Activity [14]: inactive; Activity [15]: inactive; EC50 [16]: 0.36 µM; Activity [18]: inactive; Activity [20]: inactive; EC50 [21]: 0.43 µM; CC50 [22]: 48.2 µM; CC50 [23]: 114 µM; Activity [25]: inactive; Activity [28]: inactive; selectivity ratio [29]: 91; CC50 [30]: 36 µM; Activity [35]: inactive; Activity [36]: inactive; Activity [39]: inactive
C[C@@]1(O)[C@H](O)[C@@H](CO)O[C@H]1n1ccc(N)nc1=O	–	–	–	–	–	–	–	–	–	–	–	–	–	–	–	–	–	–	selectivity ratio [42]: > 22; EC50 [43]: 1.23 µM; CC50 [44]: > 25 µM
NC(=O)c1ncn([C@@H]2O[C@H](CO)[C@@H](O)[C@H]2O)n1 [RIBAVIRIN]	3930	> 91	> 3560	31.1	49	45	> 77	27.8	36.4	> 98	> 4090	> 83	53	> 150	130	> 4090	> 4090	> 4090	selectivity ratio [45]: > 670; CC50 [46]: > 4100 µM; EC50 [47]: 21.9 µM
